Data taken from article PMC12040169 (PLOS Biology, 2025).

Assay: in vitro
Conditions: human, hela cells

| SMILES | viability at 28.5 h, 10 µM (% viability) [%] | further results |
| --- | --- | --- |
| O=c1c2c3c(sc2ncn1Cc1nn[nH]n1)CCCC3 [CBK269808] | 83.9 |  |
| CN(C(=O)[C@H]1CCCC[C@H]1C(=O)O)C1CCS(=O)(=O)C1 (stereo partly drawn) [CBK286782] | 106 |  |
| Nc1ncc(Br)nc1N[C@@H](CO)c1ccccc1 [CBK074321] | 102 |  |
| COC(=O)c1cn([C@H]2CO[C@H]3[C@@H]2OC[C@@H]3NC(=O)C2CCCCC2)nn1 [CBK289496] | 98.4 |  |
| CCOC(=O)c1c(NC(=O)CSc2ccc(F)cc2)sc2c1CCCC2 [CBK266506] | 95.9 |  |
| CC(C(=O)Nc1ccc(S(N)(=O)=O)cc1)N1CCCc2ccccc21 (stereo not drawn) [CBK306108] | 116 |  |
| CCn1cc(C(C)NC(=S)Nc2ccc(OC)cc2OC)c(C)n1 (stereo not drawn) [CBK266950] | 90 |  |
| Cc1ccccc1OCC(=O)Nc1ccc(C(=O)O)c(Cl)c1 [CBK287027] | 83.6 |  |
| c1cnc(N2CCCC2)c(OCc2ccsc2)n1 [CBK115664] | 92.2 |  |
| CCCCn1c(SCC(=O)c2cc(C)n(CCc3ccc(OC)cc3)c2C)n[nH]c1=O [CBK295351] | 96.1 |  |
| O=C(O)c1nccnc1C(=O)NCCc1c[nH]c2ccc(Cl)cc12 [CBK286630] | 93.8 |  |
| Cc1cc(/C=C2\SC(=O)N(CC(=O)Nc3ccccc3F)C2=O)c(C)n1-c1cccnc1 [CBK264770] | 95.5 |  |
| Nc1nc(=O)c2cnc3c(F)cccc3c2s1 [CBK291249] | 91.1 |  |
| Cc1nnnn1C(Cc1cccc(F)c1)C(=O)N1CC(C)CC(C)C1 (stereo not drawn) [CBK298262] | 96.3 |  |
| CC(C)N(C(=O)c1ccccc1-c1cnc2cccnn12)C(C)C [CBK306900] | 97.8 |  |
| O=C(CC1CCCC1)N1CCC(c2nnc(-c3ccsc3)o2)CC1 [CBK283381] | 106 |  |
| CC1CCCCC1NC(=O)CSc1nnc(CN2CCOCC2)n1C (stereo not drawn) [CBK266662] | 102 |  |
| NC(=O)c1cccc(OCCOc2nccnc2N2CCNCC2)c1 [CBK014338G] | 114 |  |
| COc1ccc(C(=O)NCc2ccc(S(N)(=O)=O)cc2)cc1[N+](=O)[O-] [CBK263629] | 105 |  |
| COc1ccc(-c2nnc(SC(C)c3nnc(-c4ccccc4)o3)n2CC(C)C)cc1 (stereo not drawn) [CBK297108] | 103 |  |
| OCc1ccccc1-c1cncc(NCc2cccs2)n1 [CBK065345] | 104 |  |
| Cc1cnn(C2(C(=O)O)CCN(C(=O)c3cccc(C#N)c3)CC2)c1 [CBK307058] | 102 |  |
| CC(C)NC(=O)N[C@H]1CCN2C(=O)N(c3ccc(F)c(Cl)c3)C(=O)[C@@H]2C1 [CBK289540] | 83.1 |  |
| CCOC(=O)c1[nH]c2ccccc2c1NS(=O)(=O)c1cccc(Cl)c1C [CBK047423] | 88.9 |  |
| CCOC(=O)NC(Nn1cnnc1)(C(F)(F)F)C(F)(F)F [CBK261344] | 117 |  |
| CN1CCN(c2ccccc2NC(=O)CSc2ccc(Cl)cc2)CC1 [CBK267941] | 98.9 |  |

| SMILES | viability at 28.5 h, 10 µM (% viability) [%] | further results |
| --- | --- | --- |
| CCOc1ccc(NC(=O)N(CCO)Cc2nccn2C)cc1C#N [CBK307634] | 82.6 |  |
| CC(C)(C)C(=O)N1CCC(n2nc(-c3ccco3)ccc2=O)CC1 [CBK282341] | 99.3 |  |
| CCC(c1cccnc1)N(C)C(=O)c1ccc(=O)n(C)c1 (stereo not drawn) [CBK306802] | 101 |  |
| CC(C)CNc1nc(-c2cccc(O)c2)cnc1N [CBK063862] | 99.1 |  |
| Cn1c(=O)c2c(nc(NCc3ccc4c(c3)OCO4)n2Cc2cccc(Cl)c2)n(C)c1=O [CBK074359] | 96.4 |  |
| c1cncc(C2N3CCC4(CC3)c3[nH]c5ccccc5c3CCN24)c1 (stereo not drawn) [CBK284430] | 92.8 |  |
| O=C(c1ccccc1)C(Sc1nnc2sc3ccccc3n12)c1ccccc1 (stereo not drawn) [CBK265416] | 84.2 |  |
| Cc1ccc(S(=O)(=O)N(C)C)cc1NC(=O)C12CCC(C)(C(=O)C1)C2(C)C (stereo not drawn) [CBK266551] | 108 |  |
| O=C(O)c1ccc(NS(=O)(=O)c2ccc3ccccc3c2)cc1 [CBK034053] | 96.6 |  |
| FC(F)Oc1ccc(NC(=S)NCCN2CCOCC2)cc1 [CBK028000] | 87.7 |  |
| O=C(CC1SC(NC2CC3C=CC2C3)=NC1=O)NCc1ccccc1 (stereo not drawn) [CBK049940] | 87.1 |  |
| COc1ccc([C@@]23CC[C@@H](NC(=O)c4ccc(C(F)(F)F)c(F)c4)C[C@@H]2CN(C)C3)cc1OC [CBK082742C] | 107 |  |
| CN1CCN(c2cc(-c3cccc4cccnc34)nc3ccnn23)CC1 [CBK037013] | 90.8 |  |
| O=C(CC(CN1CCN(Cc2cccnc2)CC1)C(=O)O)Nc1ccc(Cl)cc1 (stereo not drawn) [CBK286853] | 91.5 |  |
| Cc1ccc(CN2CC[C@H]3[C@@H](C2)[C@H](c2ccsc2)CN3C(=O)c2ccc(F)cc2)cc1 [CBK285637] | 98.1 |  |
| COc1ccc(C2C(C(=O)c3ccco3)=C(O)C(=O)N2CCN2CCOCC2)cc1OC (stereo not drawn) [CBK264544] | 98.8 |  |
| CN1C(=O)COc2ccccc2C/C=C/C[C@H]2CN(C(=O)C3CCC3)CC[C@H]21 [CBK292087] | 95.1 |  |
| Cc1ccc(S(=O)(=O)Cc2ccc(C(=O)NCc3ccco3)cc2)cc1 [CBK268630] | 105 |  |
| Cc1ccc(NC(=O)c2ccncc2)c(Br)c1 [CBK058282] | 94.1 |  |
| COCCNC(=O)c1cc(-c2ccccc2C)cnc1NS(C)(=O)=O [CBK106422] | 82.9 |  |
| O=C1N=C(Nc2cccc(C(=O)O)c2)S/C1=C/c1cccc(O)c1 [CBK264984] | 92.5 |  |
| COc1nccnc1NS(=O)(=O)c1ccc(Nc2c([N+](=O)[O-])cc([N+](=O)[O-])c3nonc23)cc1 [CBK261441] | 87.5 |  |
| CSc1ccc(CN(C)c2cncc(-n3cccn3)n2)cc1 [CBK298326] | 91.2 |  |
| CCOC(=O)Cn1ccc2ccnc(-c3cccs3)c21 [CBK285200] | 107 |  |
| Cc1cc(C)n(CC(=O)NC(Cc2cccs2)c2nccs2)n1 (stereo not drawn) [CBK284686] | 85.8 |  |
| CC(=O)NS(=O)(=O)c1ccc(NC(=N)Nc2nc(C)cc(C)n2)cc1 [CBK263117C] | 90.1 |  |

| SMILES | viability at 28.5 h, 10 µM (% viability) [%] | further results |
| --- | --- | --- |
| O=C(NCC1(CCO)CC1)c1c[nH]nc1-c1cc2ccccc2o1 [CBK306163] | 94.5 |  |
| CN(C)C(=O)Oc1ccc2[nH]c3c(c2c1)CCNC31CCN(CCOc2ccccc2)C1 (stereo not drawn) [CBK107679] |  | viability at 28.5 h, 10 µM: 95.1% |
| CC(C)c1ccsc1C(=O)N1CCC2(C1)NC(=O)NC2=O (stereo not drawn) [CBK305188] | 87.1 |  |
| Fc1ccc(SCCc2ccccn2)cc1 [CBK026491G] | 82.9 |  |
| CCOc1ccc(N2C(=O)NC(=O)/C(=C/c3cn(CC(=O)Nc4ccccc4)c4ccccc34)C2=O)cc1 [CBK263544] |  | viability at 28.5 h, 10 µM (% viability, bulk resorufin, single well): 90.2% |
| c1ccc2c(c1)OCC(c1nn3c(Cn4cnc5ccccc54)nnc3s1)O2 (stereo not drawn) [CBK268436] | 81.4 |  |
| COc1ccnc(N2CCN(C(=O)c3c4c(nn3C)CCCC4)CC2)n1 [CBK304609] | 118 |  |
| O=C(c1ccccc1-c1ccccc1)N1CCn2cnnc2C1 [CBK283789] | 85.2 |  |
| O=C(O)c1ccc2c(c1)C(=O)N(CCCN1CCOCC1)C2=O [CBK269245] | 102 |  |
| CC(Cc1cccs1)C(=O)N1CCn2cnnc2C1 (stereo not drawn) [CBK282109] | 96 |  |
| O=C(NC(c1ccc(Cl)cc1)c1ccsc1)C1CCN(C(=O)Oc2ccc(Cl)cc2)CC1 (stereo not drawn) [CBK060044] | 88.5 |  |
| Cc1cc(C)c(NC(=O)CSc2nc(C)c(Cc3ccccc3)c(O)n2)c([N+](=O)[O-])c1 [CBK268715] | 86.8 |  |
| O=C(Nc1c(F)cc(F)cc1OC1CCNCC1)c1coc2c1C(=O)CCC2 [CBK050331T] | 93.9 |  |
| Nc1nc(Cl)c2ncn([C@H]3C[C@@H](O)[C@@H](CO)O3)c2n1 [CBK201193] | 100 |  |
| CC(=O)c1c(C)oc2c1cc(NS(=O)(=O)c1ccc(C(=O)O)cc1)c1ccccc12 [CBK299780] | 92 |  |
| O=C(O)c1ccccc1-c1ccc(-c2cc(C(=O)O)c3cc(Cl)ccc3n2)o1 [CBK268699] | 91.1 |  |
| Cc1ccn(CCNC(=O)c2cc3ccc(F)cc3[nH]2)n1 [CBK283209] | 91.9 |  |
| COc1ccc(OCc2nn(-c3nc4ccccc4s3)c(N)c2-c2ccccc2)cc1 [CBK266539] | 98.5 |  |
| CCc1cccc2c(C=C3C(=O)N(CC(=O)O)C(=O)c4ccccc43)c[nH]c12 [CBK295153] | 81.5 |  |
| COc1ccc2c(c1)c(C)c(C(=O)NC(C)Cc1ccccn1)n2C (stereo not drawn) [CBK281425] | 98.6 |  |
| O=S(=O)(Nc1ccccn1)c1cccs1 [CBK043773] | 94.7 |  |
| Cc1nc(C)c(C(=O)Nc2ccc3c(c2)CN(Cc2ccccc2)C3)o1 [CBK281835] | 91.2 |  |
| O=C(NCc1nc2ccccc2[nH]1)c1cc(Br)cnc1N1CCOCC1 [CBK076278] | 96.7 |  |
| COc1ccc(OCC(O)Cn2c(CCCO)nc3ccccc32)cc1 (stereo not drawn) [CBK305579] | 101 |  |
| Cc1ccc(S(=O)(=O)NC(=O)c2cc(C)n(-c3ccc(N(C)C)cc3)c2C)cc1 [CBK296085] | 92.9 |  |
| CC(=O)c1cccc(NC(=O)N(Cc2ccco2)CC2CCCO2)c1 (stereo not drawn) [CBK304467] | 104 |  |
